Test results: the METLIN SMRT retention time set (Domingo-Almenara et al. 2019)

Assay: gradient 5% acetonitrile 3 min, to 50% in 2 min, to 85% in 15 min, held 3 min, 100 µL/min
Conditions: column: Zorbax Extend-C18 2.1 x 50 mm; eluents: water / acetonitrile, 0.1% formic acid
How it was run: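 Mixtures of ~100 pure standards were chromatographed on a Zorbax Extend-C18 column (2.1 × 50 mm, 1.8 μm) at 100 μL/min using water and acetonitrile, each with 0.1% formic acid. Detection used a quadrupole time-of-flight mass spectrometer in positive and negative ionization mode, and data collection spanned 3 months. Retention time was obtained from adduct peaks picked computationally and each checked manually.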

RP-LC retention time	SMILES
934 s	Cn1cccc1C(=O)N1CC(c2nc(CCOCC3CCCC3)no2)C1
735 s	COc1ccc(-c2cc3nc(C)cc(N4CCN(c5nc(C)cc(C)n5)CC4)n3n2)cc1OC
1080 s	CCOC(=O)Cc1c(C(=O)OCC)nnc2c(-c3ccccc3)c(C)nn12
669 s	O=C(Cn1cnc2nc(N3CCCC(C(=O)NC4CC4)C3)sc2c1=O)NCc1ccc(F)cc1 (stereo not drawn)
677 s	CCn1c(C(=O)NCCCN2CCCC(C)C2)cc2cc(S(=O)(=O)N(C)C)ccc21 (stereo not drawn)
1070 s	Cc1ccc(Cl)cc1NC(=O)Cn1cnc2c(sc3nc(-c4ccccc4)ccc32)c1=O
709 s	CS(=O)(=O)N1CCC(OC2CCN(C(=O)Nc3ccccc3)CC2)CC1
651 s	O=C(Nc1ccc2c(c1)OCO2)Nc1ccc2nc3n(c(=O)c2c1)CCCC3
826 s	CCOC(=O)c1ccc(NC(=O)c2csc(-c3cn(C)c4ncccc34)n2)cc1
993 s	CN(CCc1noc(-c2ccc(Cl)cc2)n1)C(=O)COc1ccc(F)cc1
1210 s	Clc1ccc(-c2noc(Cc3nnc(-c4cccc(Br)c4)o3)n2)cc1
842 s	O=C(NCc1ccc(F)c(Cl)c1)C1CCN(C(=O)c2ncn3c2COC(c2ccccc2)C3)CC1 (stereo not drawn)
781 s	CC1CCN(S(=O)(=O)c2ccc3nn(Cc4cccc(F)c4)c(=O)n3c2)CC1
810 s	Cc1ccc(C2Cn3cnc(C(=O)N4CCC(C(=O)NCc5ccccc5C)CC4)c3CO2)cc1 (stereo not drawn)
579 s	COc1ccc(N2CCN(C(=O)c3ccc(S(=O)(=O)N4CCCC4)cc3)CC2)nn1
860 s	O=S(=O)(NCc1ccccc1)c1ccc2c(c1)-c1oncc1CO2
572 s	Cn1c(CC2CCN(C(=O)c3ccccc3Cl)C2)nc2cccnc21 (stereo not drawn)
1150 s	CCCC(=O)NCCc1c2n(c3ccc(OC)cc13)CCCc1ccccc1-2
932 s	Cc1cc(C)n(CC(=O)N2CCN(c3ccccc3)CC2)c1-c1nc(C2CC2)no1
691 s	CCNC(=O)Nc1ccc(OCC(=O)NCc2cc(OC)cc(OC)c2)nc1
650 s	COc1ccc(F)cc1S(=O)(=O)N1CCC(n2cnnc2C)CC1
702 s	Cc1[nH]c(C(=O)N2CCC(CC(=O)N3CCOCC3)CC2)c(C)c1C(=O)OC(C)C

RP-LC retention time	SMILES
811 s	CCn1cc(C2=CCN(C(=O)Nc3ccc(OC)cc3)CC2)c2cccnc21
695 s	CNC(=O)CCc1nc2ccccc2n(CC(=O)NCc2ccc(C)cc2)c1=O
687 s	COc1cc(-c2oc3cc(O)ccc3c(=O)c2O)ccc1O
657 s	CCOCC(=O)Nc1ccc(-c2nnc(CC)o2)cc1
685 s	Cc1ccn2cc(-c3ccc(NS(=O)(=O)c4ccc(C)c([N+](=O)[O-])c4)cc3)nc2n1
895 s	Cc1nc(N2CCOCC2)c2c(C(=O)N3CCN(c4ccc(Cl)cc4)CC3)c(C)oc2n1
1080 s	Cc1cc(=O)n(CC(=O)Nc2ccc(Cl)cc2)c(-c2ccccc2)n1
897 s	O=C(c1cc(Cl)ccc1Cl)N1CCN(c2cc(-c3ccc(F)cc3)[nH]n2)CC1
753 s	O=C1NCCCCCN(C(=O)c2ccoc2)[C@@H]2C[C@@H](C(=O)N3CCc4ccccc4C3)C[C@H]12
625 s	CC(C)c1nnc(-c2coc(S(=O)(=O)N3CCC(N4CCCCC4)CC3)c2)o1
556 s	CCOC(=O)CNC(=O)N1CCN(c2nc3ccccc3n3cccc23)CC1
1120 s	CCOc1nc2ccccc2nc1N1CCCC(C(=O)Nc2ccccc2CC)C1 (stereo not drawn)
888 s	O=C(Cc1cc(-c2ccc3c(c2)OCO3)on1)Nc1ccc(F)c(F)c1F
1000 s	Cc1ccc(-c2noc(C3CCCN3C(=O)c3ccc4c(c3)OCO4)n2)cc1 (stereo not drawn)
1100 s	Cc1ccc(-c2nc(-c3ccnc(N4CCOCC4)c3)no2)cc1F
665 s	O=S(=O)(Cc1ccccc1)N1CCC(OCCOc2cccnc2)CC1
1170 s	O=C(NCc1ccccc1)c1cc2sccc2n1Cc1ccc(Cl)cc1
810 s	Cc1ccc(C)c(NC(=O)C2CCCN2S(=O)(=O)c2ccc3c(c2)CCCC(=O)N3)c1 (stereo not drawn)
580 s	COc1ccc(OC)c(-c2cc(C(=O)N3CCN(Cc4ccsc4)CC3)n(C)n2)c1
907 s	CCN(C(=O)Cc1c(C(=O)O)c(C)cn1CC)c1ccccc1
647 s	CSc1cccc(NC(=O)N2CCC(n3c(C)nc4cccnc43)CC2)c1
1300 s	CCOc1ccc(-c2nc(-c3cccc(-c4ccnn4CC)c3)no2)cc1

RP-LC retention time	SMILES
1110 s	CCCN1C(=O)c2cc(S(=O)(=O)Nc3ccc(Cl)cc3)ccc2Oc2cccnc21
933 s	O=C(NCc1ccc(F)cc1Cl)C1=C2CCCN2c2ccc(F)cc2S1(=O)=O
844 s	O=C(Nc1ccc(C2(C(=O)N3CCCCCC3)CCC2)cc1)C1CC1
851 s	COC(=O)c1cc(OCC(=O)Nc2ccc3c(c2)OCCO3)c2cc(Cl)ccc2n1
630 s	O=C(Nc1ccc2cn[nH]c2c1)C1CN(c2nc3ccccc3s2)C1
647 s	CCn1cc(C(=O)NCc2ccccn2)c(S(=O)(=O)N2CCSCC2)n1
1190 s	CCc1cc(=O)n(CC(=O)NC(C)CCc2ccccc2)c(-c2ccccc2)n1 (stereo not drawn)
738 s	O=C(C1CC1)N1CCN(c2ccc(=O)n(-c3cccc(Cl)c3)n2)CC1
627 s	CSc1cccc(NC(=O)Cc2csc(NC(=O)C3CCC(=O)N3)n2)c1 (stereo not drawn)
651 s	Cc1ccc(NS(=O)(=O)c2cc3n(c2)CCCNC3=O)cc1
561 s	CCSc1nnc(NC(=O)Cn2nc(-c3ccncc3)ccc2=O)s1
860 s	Brc1cccc(-c2nn3c(-c4ccccn4)nnc3s2)c1
1410 s	CCCN(C(=O)CC)c1nc(-c2ccc(Br)cc2)cs1
658 s	COc1ccc(S(=O)(=O)N2CCC(C(=O)Nc3nnc(C4CCCO4)o3)CC2)cc1 (stereo not drawn)
649 s	Cn1nc(N2CCC(NC(=O)C3CCCCC3)C2)ccc1=O (stereo not drawn)
966 s	COc1cccc(NC(=O)C2CCN(S(C)(=O)=O)c3cc(Cl)ccc3O2)c1 (stereo not drawn)
1080 s	CCC(C)NC(=O)c1cccn1Cc1noc(-c2ccc(Cl)cc2)n1 (stereo not drawn)
964 s	CCc1nc2ccccc2c(=O)n1Cc1noc(-c2ccc3c(c2)OCO3)n1
649 s	CCS(=O)(=O)Nc1ccc(Nc2c3ccccc3nc3ccccc23)c(OC)c1
586 s	CC(C)NCC(O)COc1ccc(Br)cc1Br (stereo not drawn)
584 s	CC(C(=O)NN1CCOCC1)n1nc(-c2ccco2)ccc1=O (stereo not drawn)
644 s	Cc1ccc(NC(=O)c2cn3c(n2)CCCC3)c(C)c1

RP-LC retention time	SMILES
963 s	COCc1nncn1C1CN(C(=O)Nc2ccc(Cl)cc2C(F)(F)F)C1
764 s	COCc1nncn1C1CCN(S(=O)(=O)c2ccc(C(F)(F)F)cc2)CC1
849 s	O=S(=O)(NCCc1noc(-c2ccccc2)n1)c1cccs1
898 s	CC(C)C(=O)n1nc(-c2ccccc2Cl)nc1N
1370 s	O=C(Nc1cnc(-c2cccc(Cl)c2)nc1)c1nccc2ccccc12
761 s	COc1ccc(CC(=O)N2CCC3(C2)C(=O)Nc2ccccc23)cc1Cl (stereo not drawn)
726 s	COC(=O)c1ccc(NC(=O)N2CCC3(CC2)NC(=O)c2ccccc2O3)cc1
682 s	O=C(Cn1nc2c(N3CCCCCC3)nccn2c1=O)Nc1ccccc1F
1030 s	CCN1C=C(C(=O)OCc2cccc(C)c2)C(C)=NS1(=O)=O
586 s	CCc1noc(COC2CCCN(C(=O)Cn3ccnc3)C2)n1 (stereo not drawn)
798 s	CCCOc1ccc(CNC(=O)c2nc(N3CCSCC3)c3cn(C)nc3n2)cc1
682 s	COc1cc(NC(=O)CSc2ccc(N3CCOCC3)nn2)cc(OC)c1
802 s	O=C(NCc1cc(F)ccc1F)C1CCN(C(=O)c2ncn3c2COC(c2ccc(F)cc2)C3)CC1 (stereo not drawn)
626 s	Cc1cc(C)c2[nH]c3c(c(=O)c2c1)CN(CC(=O)Nc1ccc2c(c1)OCO2)CC3
1420 s	COc1ccc(C(=O)N2c3nc(-c4ccccc4)nn3C3(CCCCC3)[C@@H]3CCCC[C@@H]32)cc1OC
542 s	CN1CCN(CCCNC(=O)c2cc(-c3cccnc3)nc3ccc(Br)cc23)CC1
781 s	CCN1c2ccccc2C(=O)NC12CCN(C(=O)Nc1ccccc1OC)CC2
991 s	COc1ccc(NC(=O)Cn2cnc3c(sc4nc(-c5ccccc5)ccc43)c2=O)c(OC)c1
578 s	CCn1c(C)cc(=O)c2cc(C(=O)Nc3nc(C)c(C)s3)ccc21
658 s	Cc1cc(C)cc(C(=O)N2C[C@@H]3C[C@H](NC(=O)c4cccnc4)[C@H]2C3)c1
800 s	O=C(NCc1cccc(Br)c1)C1CCCN(C(=O)C2Sc3ccccc3NC2=O)C1 (stereo not drawn)

SMILES	RP-LC retention time
COCCN1C(=O)CS(=O)(=O)C12CCN(C(=O)C1(c3ccccc3)CC1)CC2	685 s
